This assay deals with MV-4-11 cells. The assay is described as follows: Gene expression microarray analysis (Affymetrix PrimeView) and GSEA. It is filed as cell-based, human. Set-up: RFU PODN (11730768_x_at) / Fold change /veh PODN (11730768_x_at) / RFU LINC00158 (11744669_a_at) / Fold change /veh LINC00158 (11744669_a_at) / RFU DUSP10 (11751237_a_at) / Fold change /veh DUSP10 (11751237_a_at) / RFU ID3 (11757404_x_at) / Fold change /veh ID3 (11757404_x_at) / RFU PLEKHG5 (11737974_s_at) / Fold change /veh PLEKHG5 (11737974_s_at) / RFU LRRC4B (11730491_at) / Fold change /veh LRRC4B (11730491_at) / RFU GIMAP4 (11747438_a_at) / Fold change /veh GIMAP4 (11747438_a_at) / RFU KRT8 (11758183_x_at) / Fold change /veh KRT8 (11758183_x_at) / RFU CNN1 (11734310_a_at) / Fold change /veh CNN1 (11734310_a_at) / RFU VPS37D (11726825_at) / Fold change /veh VPS37D (11726825_at) / RFU C10orf10 (11716522_x_at) / Fold change /veh C10orf10 (11716522_x_at) / RFU KIR2DL2 /// KIR2DL4 /// KIR2DL5A /// KIR2DL5B /// KIR2DS1 /// KIR2DS2 /// KIR2DS3 /// KIR2DS4 /// KIR3DL3 /// KIR3DL3 /// KIR3DS1 (11738374_at) / Fold change /veh KIR2DL2 /// KIR2DL4 /// KIR2DL5A /// KIR2DL5B /// KIR2DS1 /// KIR2DS2 /// KIR2DS3 /// KIR2DS4 /// KIR3DL3 /// KIR3DL3 /// KIR3DS1 (11738374_at) / RFU C1QL1 (11718748_at) / Fold change /veh C1QL1 (11718748_at) / RFU TMPRSS4 (11747572_a_at) / Fold change /veh TMPRSS4 (11747572_a_at) / RFU HAMP (11756126_x_at) / Fold change /veh HAMP (11756126_x_at) / RFU RNFT2 (11725882_a_at) / Fold change /veh RNFT2 (11725882_a_at) / RFU NR4A2 (11747474_a_at) / Fold change /veh NR4A2 (11747474_a_at) / RFU ABCC12 (11746883_a_at) / Fold change /veh ABCC12 (11746883_a_at) / RFU TMEM136 (11760407_x_at) / Fold change /veh TMEM136 (11760407_x_at) / RFU CLDN22 /// WWC2 (11732394_at) / Fold change /veh CLDN22 /// WWC2 (11732394_at) / RFU HLA-DPB1 (11760878_x_at) / Fold change /veh HLA-DPB1 (11760878_x_at) / RFU SPINT1 (11716480_a_at) / Fold change /veh SPINT1 (11716480_a_at) / RFU GAP43 (11754022_s_at) / Fold change /veh GAP43 (11754022_s_at) / RFU A4GNT (11735810_at) / Fold change /veh A4GNT (11735810_at) / RFU PRB3 (11715151_x_at) / Fold change /veh PRB3 (11715151_x_at) / RFU TUBB4B (11761932_at) / Fold change /veh TUBB4B (11761932_at) / RFU CAPN14 (11732068_a_at) / Fold change /veh CAPN14 (11732068_a_at) / RFU TMCC2 (11721928_a_at) / Fold change /veh TMCC2 (11721928_a_at) / RFU IRGQ (11745062_a_at) / Fold change /veh IRGQ (11745062_a_at) / RFU FAM174B (11720279_a_at) / Fold change /veh FAM174B (11720279_a_at) / RFU TMPRSS4 (11748680_a_at) / Fold change /veh TMPRSS4 (11748680_a_at) / RFU FAM212B (11763350_a_at) / Fold change /veh FAM212B (11763350_a_at) / RFU PLEKHG5 (11743358_a_at) / Fold change /veh PLEKHG5 (11743358_a_at) / RFU ZSCAN30 (11745921_a_at) / Fold change /veh ZSCAN30 (11745921_a_at) / RFU CMKLR1 (11741424_a_at) / Fold change /veh CMKLR1 (11741424_a_at) / RFU LOC101060620 /// MAPK8IP1 (11723275_at) / Fold change /veh LOC101060620 /// MAPK8IP1 (11723275_at) / RFU SPTSSB (11747773_x_at) / Fold change /veh SPTSSB (11747773_x_at) / RFU PRSS12 (11739890_at) / Fold change /veh PRSS12 (11739890_at) / RFU BIN1 (11741810_x_at) / Fold change /veh BIN1 (11741810_x_at) / RFU WNT11 (11732464_a_at) / Fold change /veh WNT11 (11732464_a_at) / RFU C10orf10 (11716521_a_at) / Fold change /veh C10orf10 (11716521_a_at) / RFU C5orf56 (11738089_at) / Fold change /veh C5orf56 (11738089_at) / RFU CYB561 (11721691_x_at) / Fold change /veh CYB561 (11721691_x_at) / RFU ANKRD19P (11752326_a_at) / Fold change /veh ANKRD19P (11752326_a_at) / RFU OR2T12 /// OR2T33 /// OR2T8 (11738714_s_at) / Fold change /veh OR2T12 /// OR2T33 /// OR2T8 (11738714_s_at) / RFU VCAN (11748164_a_at) / Fold change /veh VCAN (11748164_a_at) / RFU JSRP1 (11732532_at) / Fold change /veh JSRP1 (11732532_at) / RFU KRTAP10-11 (11738290_x_at) / Fold change /veh KRTAP10-11 (11738290_x_at) / RFU MYO3A (11730013_a_at) / Fold change /veh MYO3A (11730013_a_at) / RFU EBF3 (11725865_a_at) / Fold change /veh EBF3 (11725865_a_at) / RFU CAMK2N1 (11719241_x_at) / Fold change /veh CAMK2N1 (11719241_x_at) / RFU C5orf56 (11738088_a_at) / Fold change /veh C5orf56 (11738088_a_at) / RFU OLFML3 (11715873_a_at) / Fold change /veh OLFML3 (11715873_a_at) / RFU LOC100653217 /// NTM (11731650_a_at) / Fold change /veh LOC100653217 /// NTM (11731650_a_at) / RFU MAPK11 (11762145_a_at) / Fold change /veh MAPK11 (11762145_a_at) / RFU FIZ1 (11724087_x_at) / Fold change /veh FIZ1 (11724087_x_at) / RFU OASL (11726364_x_at) / Fold change /veh OASL (11726364_x_at) / RFU SOX15 (11748057_x_at) / Fold change /veh SOX15 (11748057_x_at) / RFU CD79A (11719716_a_at) / Fold change /veh CD79A (11719716_a_at) / RFU HIST1H1D (11736915_at) / Fold change /veh HIST1H1D (11736915_at) / RFU CASKIN2 (11723855_a_at) / Fold change /veh CASKIN2 (11723855_a_at) / RFU LOC730098 (11760151_x_at) / Fold change /veh LOC730098 (11760151_x_at) / RFU OR4N2 (11742367_at) / Fold change /veh OR4N2 (11742367_at) / RFU PRRT2 (11749266_a_at) / Fold change /veh PRRT2 (11749266_a_at) / RFU SNX32 (11753110_a_at) / Fold change /veh SNX32 (11753110_a_at) / RFU CDHR5 (11726645_a_at) / Fold change /veh CDHR5 (11726645_a_at) / RFU RCAN1 (11760418_a_at) / Fold change /veh RCAN1 (11760418_a_at) / RFU FAM167A (11723789_a_at) / Fold change /veh FAM167A (11723789_a_at) / RFU FAM26E (11764081_at) / Fold change /veh FAM26E (11764081_at) / RFU ISYNA1 (11749810_s_at) / Fold change /veh ISYNA1 (11749810_s_at) / RFU ACY1 (11761880_at) / Fold change /veh ACY1 (11761880_at) / RFU 11764098_at / Fold change /veh 11764098_at / RFU SAMD14 (11745864_x_at) / Fold change /veh SAMD14 (11745864_x_at) / RFU NPB (11741838_a_at) / Fold change /veh NPB (11741838_a_at) / RFU TMPRSS6 (11731388_a_at) / Fold change /veh TMPRSS6 (11731388_a_at) / RFU KRTAP10-2 (11738614_at) / Fold change /veh KRTAP10-2 (11738614_at) / RFU ARHGAP8 /// PRR5-ARHGAP8 (11727945_x_at) / Fold change /veh ARHGAP8 /// PRR5-ARHGAP8 (11727945_x_at) / RFU KRTAP5-7 /// NADSYN1 (11734609_at) / Fold change /veh KRTAP5-7 /// NADSYN1 (11734609_at) / RFU RASL12 (11751679_a_at) / Fold change /veh RASL12 (11751679_a_at) / RFU CDKN2B (11736163_a_at) / Fold change /veh CDKN2B (11736163_a_at) / RFU PRF1 (11729649_at) / Fold change /veh PRF1 (11729649_at) / RFU, ZNF638 /// ZNF638-IT1 / Fold change vs veh, ZNF638 /// ZNF638-IT1 / RFU, PANK3 / Fold change vs veh, PANK3 / RFU, SH3YL1 / Fold change vs veh, SH3YL1 / RFU, ZEB2 / Fold change vs veh, ZEB2 / RFU, NRIP1 / Fold change vs veh, NRIP1 / RFU, PTTG1IP / Fold change vs veh, PTTG1IP / RFU, CAPN2 / Fold change vs veh, CAPN2 / RFU, MED14 / Fold change vs veh, MED14 / RFU, SNORA58 / Fold change vs veh, SNORA58 / RFU, C1orf63 / Fold change vs veh, C1orf63 / RFU, LRRFIP1 / Fold change vs veh, LRRFIP1 / RFU, NDUFAF7 / Fold change vs veh, NDUFAF7 / RFU, SLC12A2 / Fold change vs veh, SLC12A2 / RFU, IBTK / Fold change vs veh, IBTK / RFU, ESF1 / Fold change vs veh, ESF1 / Fold change vs veh, TMEM50B / RFU, TAOK1 / Fold change vs veh, TAOK1 / RFU, ACBD3 / Fold change vs veh, ACBD3 / RFU, TMA16 / Fold change vs veh, TMA16 / RFU, RWDD3 / Fold change vs veh, RWDD3 / RFU, BCAT1 / Fold change vs veh, BCAT1 / RFU, EDEM3 / Fold change vs veh, EDEM3 / RFU, TMEM33 / Fold change vs veh, TMEM33 / RFU, WDR75 / Fold change vs veh, WDR75 / RFU, AHCTF1 / Fold change vs veh, AHCTF1 / RFU, TFRC / Fold change vs veh, TFRC / RFU, ZDHHC17 / Fold change vs veh, ZDHHC17 / RFU, NOM1 / Fold change vs veh, NOM1 / RFU, ARL8B / Fold change vs veh, ARL8B / RFU, ZBTB11 / Fold change vs veh, ZBTB11 / RFU, TAMM41 / Fold change vs veh, TAMM41 / RFU, KIAA1704 /// LOC100996395 / Fold change vs veh, KIAA1704 /// LOC100996395 / RFU, ING1 / Fold change vs veh, ING1 / RFU, TRMT61B / Fold change vs veh, TRMT61B / RFU, FUBP3 / Fold change vs veh, FUBP3 / RFU, TP53 / Fold change vs veh, TP53 / RFU, TNKS2 / Fold change vs veh, TNKS2 / RFU, ZFP14 / Fold change vs veh, ZFP14 / RFU, ACTR2 / Fold change vs veh, ACTR2 / RFU, PPP3R1 / Fold change vs veh, PPP3R1 / RFU, PIK3R1 / Fold change vs veh, PIK3R1 / RFU, HNRNPA1 / Fold change vs veh, HNRNPA1 / RFU, RNF170 / Fold change vs veh, RNF170 / RFU, ZNF28 / Fold change vs veh, ZNF28 / RFU, RNGTT / Fold change vs veh, RNGTT / RFU, OGT / Fold change vs veh, OGT / RFU, BRD1 / Fold change vs veh, BRD1 / RFU, MARS / Fold change vs veh, MARS / RFU, ZNF655 / Fold change vs veh, ZNF655 / RFU, FAHD1 / Fold change vs veh, FAHD1 / RFU, BDP1 / Fold change vs veh, BDP1 / RFU, LRRCC1 / Fold change vs veh, LRRCC1 / RFU, ARID1A / Fold change vs veh, ARID1A / RFU, ZNF146 / Fold change vs veh, ZNF146 / RFU, ZNF330 / Fold change vs veh, ZNF330 / RFU, GPN3 / Fold change vs veh, GPN3 / RFU, C9orf123 / Fold change vs veh, C9orf123 / RFU, N4BP2L2 / Fold change vs veh, N4BP2L2 / RFU, ARFIP1 / Fold change vs veh, ARFIP1 / RFU, FAM179B / Fold change vs veh, FAM179B / RFU, BCL10 / Fold change vs veh, BCL10 / RFU, UHRF1BP1L / Fold change vs veh, UHRF1BP1L / RFU, BET1 / Fold change vs veh, BET1 / RFU, CNOT2 / Fold change vs veh, CNOT2 / RFU, ZNF268 / Fold change vs veh, ZNF268 / Fold change vs veh, ZNF507 / RFU, DGCR2 / Fold change vs veh, DGCR2 / RFU, WDSUB1 / Fold change vs veh, WDSUB1 / Fold change vs veh, HSP90B1 /// MIR3652 / RFU, ADSS / Fold change vs veh, ADSS / RFU, GK / Fold change vs veh, GK / RFU, ZNF148 / Fold change vs veh, ZNF148 / RFU, TAF9 / Fold change vs veh, TAF9 / RFU, SLC1A5 / Fold change vs veh, SLC1A5 / RFU, SLMO2 / Fold change vs veh, SLMO2 / RFU, ABCC4 / Fold change vs veh, ABCC4 / RFU, LOC101060439 /// RAP1B / Fold change vs veh, LOC101060439 /// RAP1B / RFU, RFX7 / Fold change vs veh, RFX7 / RFU, GTPBP10 / Fold change vs veh, GTPBP10 / RFU, CNEP1R1 / Fold change vs veh, CNEP1R1 / RFU, BIVM-ERCC5 /// ERCC5 / Fold change vs veh, BIVM-ERCC5 /// ERCC5 / RFU, ILF3 / Fold change vs veh, ILF3 / RFU 11762660_at / Fold change /veh 11762660_at / RFU VCAN (11757783_s_at) / Fold change /veh VCAN (11757783_s_at) / RFU DDX43 (11728927_at) / Fold change /veh DDX43 (11728927_at) / RFU KRT8 (11758188_x_at) / Fold change /veh KRT8 (11758188_x_at) / RFU NKD1 (11759106_at) / Fold change /veh NKD1 (11759106_at) / RFU SRD5A1 (11742802_a_at) / Fold change /veh SRD5A1 (11742802_a_at) / RFU TPSAB1 /// TPSB2 (11721975_s_at) / Fold change /veh TPSAB1 /// TPSB2 (11721975_s_at) / RFU GSTM3 (11746129_a_at) / Fold change /veh GSTM3 (11746129_a_at) / RFU IL23R (11737362_x_at) / Fold change /veh IL23R (11737362_x_at) / RFU TMEM51 (11727254_a_at) / Fold change /veh TMEM51 (11727254_a_at) / RFU PIWIL2 (11732686_x_at) / Fold change /veh PIWIL2 (11732686_x_at) / RFU ORM1 (11744905_x_at) / Fold change /veh ORM1 (11744905_x_at) / RFU CCDC152 (11743942_at) / Fold change /veh CCDC152 (11743942_at) / RFU ECM1 (11717891_a_at) / Fold change /veh ECM1 (11717891_a_at) / RFU IL23R (11748794_a_at) / Fold change /veh IL23R (11748794_a_at) / RFU TNFAIP8L3 (11732012_x_at) / Fold change /veh TNFAIP8L3 (11732012_x_at) / RFU MBOAT4 (11741988_at) / Fold change /veh MBOAT4 (11741988_at) / RFU 11764193_at / Fold change /veh 11764193_at / RFU TMEM53 (11763286_at) / Fold change /veh TMEM53 (11763286_at) / RFU MAGEB2 (11727129_at) / Fold change /veh MAGEB2 (11727129_at) / RFU TMEM200A (11744735_a_at) / Fold change /veh TMEM200A (11744735_a_at) / RFU CCDC152 (11751479_a_at) / Fold change /veh CCDC152 (11751479_a_at) / RFU FAM211A (11726209_a_at) / Fold change /veh FAM211A (11726209_a_at) / RFU RGS16 (11746705_a_at) / Fold change /veh RGS16 (11746705_a_at) / RFU VCAN (11755009_s_at) / Fold change /veh VCAN (11755009_s_at) / RFU RHOB (11743442_s_at) / Fold change /veh RHOB (11743442_s_at) / RFU RGS16 (11720943_a_at) / Fold change /veh RGS16 (11720943_a_at) / RFU RGS16 (11720944_at) / Fold change /veh RGS16 (11720944_at) / RFU, VPS4B / Fold change vs veh, VPS4B / RFU, CREB1 / Fold change vs veh, CREB1 / RFU, DNAJC13 / Fold change vs veh, DNAJC13 / RFU, GNAQ / Fold change vs veh, GNAQ / RFU, CDK5R1 / Fold change vs veh, CDK5R1 / RFU, ZRANB3 / Fold change vs veh, ZRANB3 / RFU, CUL4A / Fold change vs veh, CUL4A / RFU, CCNY / Fold change vs veh, CCNY / RFU, UFL1 / Fold change vs veh, UFL1 / RFU, COG3 / Fold change vs veh, COG3 / RFU, DIAPH2 / Fold change vs veh, DIAPH2 / RFU, SKA2 / Fold change vs veh, SKA2 / RFU, AFF3 / Fold change vs veh, AFF3 / RFU, LMF1 / Fold change vs veh, LMF1 / RFU, IPO11 / Fold change vs veh, IPO11 / RFU, DFFB / Fold change vs veh, DFFB / RFU, FOXP1 / Fold change vs veh, FOXP1 / RFU, CARD8 / Fold change vs veh, CARD8 / RFU, STRN3 / Fold change vs veh, STRN3 / RFU, ADK / Fold change vs veh, ADK / RFU, RASSF2 / Fold change vs veh, RASSF2 / RFU, WIPF1 / Fold change vs veh, WIPF1 / RFU, LARP1B / Fold change vs veh, LARP1B / RFU, RASA1 / Fold change vs veh, RASA1 / RFU, RB1 / Fold change vs veh, RB1 / RFU, PPFIA1 / Fold change vs veh, PPFIA1 / RFU, MAT2A / Fold change vs veh, MAT2A / RFU, CCT5 / Fold change vs veh, CCT5 / RFU, WDR92 / Fold change vs veh, WDR92 / RFU, CUX1 / Fold change vs veh, CUX1 / RFU, TTC7A / Fold change vs veh, TTC7A / RFU, TMEM135 / Fold change vs veh, TMEM135 / RFU, DEPTOR / Fold change vs veh, DEPTOR / RFU, CPM / Fold change vs veh, CPM / RFU, DNAJB6 / Fold change vs veh, DNAJB6 / RFU, CACNA2D3 / Fold change vs veh, CACNA2D3 / RFU, DTX4 / Fold change vs veh, DTX4 / RFU, TFCP2 / Fold change vs veh, TFCP2 / RFU, GMCL1 /// GMCL1P1 / Fold change vs veh, GMCL1 /// GMCL1P1 / RFU, AEBP2 / Fold change vs veh, AEBP2 / RFU, SNHG1 /// SNORD22 /// SNORD25 /// SNORD26 /// SNORD27 /// SNORD28 /// SNORD29 /// SNORD31 / Fold change vs veh, SNHG1 /// SNORD22 /// SNORD25 /// SNORD26 /// SNORD27 /// SNORD28 /// SNORD29 /// SNORD31 / Fold change (Aza/veh), C12orf56 (ProbeSet 11735607_a_at) / Fold change (ACY-1035/veh), C12orf56 (ProbeSet 11735607_a_at) / Fold change (Aza/veh), FGFR1OP (ProbeSet 11751329_s_at) / Fold change (ACY-1035/veh), FGFR1OP (ProbeSet 11751329_s_at) / Fold change (Aza/veh), VPS36 (ProbeSet 11739960_a_at) / Fold change (ACY-1035/veh), VPS36 (ProbeSet 11739960_a_at) / RFU SYPL1 (11715823_x_at) / Fold change /veh SYPL1 (11715823_x_at) / RFU IGFBP7 (11715501_s_at) / Fold change /veh IGFBP7 (11715501_s_at) / RFU REEP3 (11722064_at) / Fold change /veh REEP3 (11722064_at) / RFU IGLL1 (11728026_x_at) / Fold change /veh IGLL1 (11728026_x_at): dose or concentration left out as unconfirmed. To be noted: ProbeSet 11732281_s_at; LIST D.

Structures are written as SMILES.

Take `Nc1ccc(-c2cccs2)cc1NC(=O)c1ccc2c(c1)cc(C1CC1)n2CCN1CCOCC1` [ACY-1035]: the “Fold change vs veh, FOXP1” value was found to be 0.88.

(Values after publication PMC5218480 (PLoS ONE, 2017).)
